According to patent publication US8633134B2, “Substituted amidine compounds for combating animal pests” (priority 2008, dated 2014):

Columns and labels:
Assay type in all cases: in vivo
[1] = tested on: Orchid Thrips (Dichromothrips corbetti); assay: Orchid thrips floral-immersion test; conditions: 96 h
Description: Dichromothrips corbetti adults used for bioassay are obtained from a colony maintained continuously under laboratory conditions. For testing purposes, the test compound is diluted to a concentration of 300 ppm (wt compound: vol diluent) in a 1:1 mixture of acetone:water (vol:vol), plus 0.01% vol/vol Kinetic® surfactant.
Thrips potency of each compound is evaluated by using a floral-immersion technique. Plastic petri dishes are used as test arenas. All petals of individual, intact orchid flowers are dipped into treatment solution and allowed to dry. Treated flowers are placed into individual petri dishes along with 10-15 adult thrips. The petri dishes are then covered with lids. All test arenas are held under continuous light and a temperature of about 28° C. for duration of the assay. After 4 days, the numbers of live thrips are counted on each flower, and along inner walls of each petri dish. The level of thrips mortality is extrapolated from pre-treatment thrips numbers.

[2] = tested on: Mediterranean Fruitfly (Ceratitis capitata); assay: Mediterranean fruitfly microtiter plate diet test; conditions: 120 h
Description: For evaluating control of Mediterranean fruitfly (Ceratitis capitata) the test unit consisted of microtiter plates containing an insect diet and 50-80 C. capitata eggs. The compounds were formulated using a solution containing 75% v/v water and 25% v/v DMSO. Different concentrations of formulated compounds were sprayed onto the insect diet at 5 μl, using a custom built micro atomizer, at two replications.
After application, microtiter plates were incubated at about 28±1° C. and about 80±5% relative humidity for 5 days. Egg and larval mortality was then visually assessed.

[3] = tested on: yellowfever mosquito larvae (Aedes aegypti); assay: Larval mosquito water treatment assay; conditions: 120 h, 5 DAT (days after treatment), first tier test, in comparison with untreated controls
Description: The assay was conducted in 6-well polystyrene plates using one plate per treatment rate. Stock solutions were prepared at 100 and 1000 ppm. Screen rates were at 1 and 10 ppm. Distilled water was added to each well, control wells were treated with acetone. Temephos (Abate technical) was used as the standard at 0.1 ppm. Ten late thirdinstar yellowfever mosquito larvae (Aedes aegypti) in water were added to each well. One drop of liver powder solution (6 g in 100 ml distilled water) was added to each well as a food source daily. Plates were maintained at 22-25° C. and 25-50% RH (relative humidity) and observed daily for dead larvae and pupae at 1, 2, 3, and 5 days after treatment. Dead larvae and all pupae were removed daily. Mortality was defined as an insect incapable of coordinated movement when agitated.

[4] = tested on: Boll Weevil (Anthonomus grandis); assay: Boll weevil microtiter plate diet test; conditions: 120 h
Description: For evaluating control of boll weevil (Anthonomus grandis) the test unit consisted of 24-well-microtiter plates containing an insect diet and 20-30 A. grandis eggs.
The compounds were formulated using a solution containing 75% v/v water and 25% v/v DMSO. Different concentrations of formulated compounds were sprayed onto the insect diet at 20 μl, using a custom built micro atomizer, at two replications. After application, microtiter plates were incubated at about 23±1° C. and about 50±5% relative humidity for 5 days. Egg and larval mortality was then visually assessed.

[5] = tested on: House Fly Adults (Musca domestica); assay: House fly adults glass vial contact assay; conditions: 48 h after treatment, in comparison with untreated controls
Description: If not otherwise specified, the tests were conducted as glass vial contact assays. Glass vials (20 ml scintillation vials) were used. Treatment solutions were mixed with technical grade chemicals diluted in acetone. Treatment solutions needed for the assays included generally 1 and 10 ppm (0.01 and 0.1 μg/cm^2, respectively), but optionally also 100 and/or 1000 ppm for first tier vials. As commercial standard, alphacypermethrin, was run at 1 ppm. As solvent control, acetone was used for the assay. Treatment solution was pipetted into the bottom of each vial. Each vial was turned on its side and placed onto a commercial grade hot dog roller without applying heat. The uncapped vials were allowed to roll to allow for the acetone treatment to vent off. After drying, the vials were placed into the compartmented vial shipping boxes. The workstation was prepared by chilling the table and plastic Petri dishes with the inside wall coated with Fluon. A weigh boat of 10% sugar water saturated cotton dental pellets was also prepared. The animal pests were collected into a tube with a rechargeable insect vacuum. The tube of animal pests was placed in a laboratory refrigerator until the animal pests were incapacitated. The animal pests were emptied into chilled Petri dish. A small cotton dental pellet was soaked in water or in 10 wt % sugar water, whereas the excess solution was gently squeezed out. […]

[6] = tested on: Tobacco Budworm (Heliothis virescens); assay: Tobacco budworm cotton plant foliar spray test; conditions: 96 h
Description: (§1) The active compounds were formulated in cyclohexanone as a 10,000 ppm solution supplied in tubes. The tubes were inserted into an automated electrostatic sprayer equipped with an atomizing nozzle and they served as stock solutions for which lower dilutions were made in 50% acetone:50% water (v/v). A nonionic surfactant (Kinetic®) was included in the solution at a volume of 0.01% (v/v).
Cotton plants were grown 2 plants to a pot and selected for treatment at the cotyledon stage. Test solutions were sprayed onto the foliage by an automated electrostatic plant sprayer equipped with an atomizing spray nozzle. The plants were dried in the sprayer fume hood and then removed from the sprayer. Each pot was placed into perforated plastic bags with a zip closure. About 10 to 11 budworm larvae were placed into the bag and the bags zipped closed. Test plants were maintained in a growth room at about 25° C. and about 20-40% relative humidity for 4 days, avoiding direct exposure to fluorescent light (24 hour photoperiod) to prevent trapping of heat inside the bags. Mortality and reduced feeding were assessed 4 days after treatment, compared to untreated control plants.

[7] = tested on: Silverleaf Whitefly (Bemisia argentifolii); assay: Silverleaf whitefly cotton plant spray test; conditions: 72 h, 3 days after treatment, in comparison with untreated controls
From the text: as §1
Cotton plants at the cotyledon stage (one plant per pot) were sprayed by an automated electrostatic plant sprayer equipped with an atomizing spray nozzle. The plants were dried in the sprayer fume hood and then removed from the sprayer. Each pot was placed into a plastic cup and about 10 to 12 whitefly adults (approximately 3-5 days old) were introduced. The insects were collected using an aspirator and a nontoxic Tygon® tubing connected to a barrier pipette tip. The tip, containing the collected insects, was then gently inserted into the soil containing the treated plant, allowing insects to crawl out of the tip to reach the foliage for feeding. Cups were covered with a reusable screened lid. Test plants were maintained in a growth room at about 25° C. and about 20-40% relative humidity for 3 days, avoiding direct exposure to fluorescent light (24 hour photoperiod) to prevent trapping of heat inside the cup. Mortality was assessed 3 days after treatment, compared to untreated control plants.

[8] = tested on: Southern Armyworm (Spodoptera eridania); assay: Southern armyworm lima bean foliar spray test; conditions: 96 h
Description: as §1
Lima bean plants (variety Sieva) were grown 2 plants to a pot and selected for treatment at the 1st true leaf stage. Test solutions were sprayed onto the foliage by an automated electrostatic plant sprayer equipped with an atomizing spray nozzle. The plants were dried in the sprayer fume hood and then removed from the sprayer. Each pot was placed into perforated plastic bags with a zip closure. About 10 to 11 armyworm larvae were placed into the bag and the bags zipped closed. Test plants were maintained in a growth room at about 25° C. and about 20-40% relative humidity for 4 days, avoiding direct exposure to fluorescent light (24 hour photoperiod) to prevent trapping of heat inside the bags. Mortality and reduced feeding were assessed 4 days after treatment, compared to untreated control plants.

[9] = tested on: Diamond Back Moth (Plutella xylostella); assay: Diamond back moth leaf dip test; conditions: foliar, 120 h
Description: The active compound is dissolved at the desired concentration in a mixture of 1:1 (vol:vol) distilled water:acteon. The test solution is prepared at the day of use and in general at concentrations of […].
Leaves of Chinese cabbage were dipped in test solution and air-dried. Treated leaves were placed in petri dished lined with moist filter paper. Mortality was recorded 24, 72, and 120 hours after treatment.

CON=C(c1ccc(C2=NOC(c3cc(Cl)cc(Cl)c3)(C(F)(F)F)C2)cc1C)N(C)C (stereo not drawn) [Compound 1-3, 4-[5-(3,5-Dichloro-phenyl)-5-trifluoromethyl-4,5-dihydro-isoxazol-3-yl]-N′-methoxy-2,N,N-trimethyl-benzamidine]
≥ 75%: mortality at 300 ppm [1] | mortality at 2500 ppm [2] | mortality at 1 ppm [3] | mortality at 2500 ppm [4] | mortality at 10 ppm [5] | mortality at 2500 ppm [6] | mortality at 300 ppm [7] | mortality at 300 ppm [8] | mortality at 300 ppm [9]
